Where “and” joins values, the source holds several entries; their conditions need not be identical. Equal values may be shown once.
Columns and labels:
[1] = test system: HCC 2998; assay: Growth inhibition of human HCC 2998 cells assessed as growth percentage at 1 uM incubated for 48 hrs by sulforhodamine B assay relative to control; assay type: functional; conditions: read-out: Activity
[2] = test system: MOLT-4; assay: Growth inhibition of human MOLT-4 cells assessed as growth percentage at 100 uM incubated for 48 hrs by sulforhodamine B assay relative to control; assay type: functional; conditions: read-out: Activity
[3] = test system: U-251; assay: Growth inhibition of human U-251 cells assessed as growth percentage at 100 uM incubated for 48 hrs by sulforhodamine B assay relative to control; assay type: functional; conditions: read-out: Activity
[4] = test system: HOP-92; assay: Growth inhibition of human HOP-92 cells assessed as growth percentage at 1 uM incubated for 48 hrs by sulforhodamine B assay relative to control; assay type: functional; conditions: read-out: Activity
[5] = test system: MOLT-4; assay: Growth inhibition of human MOLT-4 cells assessed as growth percentage at 10 uM incubated for 48 hrs by sulforhodamine B assay relative to control; assay type: functional; conditions: read-out: Activity
[6] = test system: NCI-H23; assay: Growth inhibition of human NCI-H23 cells assessed as growth percentage at 100 uM incubated for 48 hrs by sulforhodamine B assay relative to control; assay type: functional; conditions: read-out: Activity
[7] = test system: HOP-92; assay: Growth inhibition of human HOP-92 cells assessed as growth percentage at 0.1 uM incubated for 48 hrs by sulforhodamine B assay relative to control; assay type: functional; conditions: read-out: Activity
[8] = test system: PC-3; assay: Growth inhibition of human PC-3 cells assessed as growth percentage at 1 uM incubated for 48 hrs by sulforhodamine B assay relative to control; assay type: functional; conditions: read-out: Activity
[9] = test system: SK-MEL-5; assay: Growth inhibition of human SK-MEL-5 cells incubated for 48 hrs by sulforhodamine B assay; assay type: functional; conditions: for CC50: read-out: LC50 (the source's name); for GI50 / TGI: SK-MEL-5
[10] = test system: NCI-H522; assay: Growth inhibition of human NCI-H522 cells assessed as growth percentage at 100 uM incubated for 48 hrs by sulforhodamine B assay relative to control; assay type: functional; conditions: read-out: Activity
[11] = test system: LOX IMVI; assay: Growth inhibition of human LOX IMVI cells incubated for 48 hrs by sulforhodamine B assay; assay type: functional
[12] = Cytotoxicity against human HFF-1 cells assessed as cell growth inhibition at 10 uM by MTT assay relative to control; assay type: cell-based; conditions: read-out: GI
[13] = test system: Hs-578T; assay: Growth inhibition of human Hs-578T cells assessed as growth percentage at 1 uM incubated for 48 hrs by sulforhodamine B assay relative to control; assay type: functional; conditions: read-out: Activity
[14] = test system: OVCAR-4; assay: Growth inhibition of human OVCAR-4 cells incubated for 48 hrs by sulforhodamine B assay; assay type: functional; conditions: for CC50: read-out: LC50 (the source's name)
[15] = test system: COLO 205; assay: Growth inhibition of human COLO 205 cells assessed as growth percentage at 1 uM incubated for 48 hrs by sulforhodamine B assay relative to control; assay type: functional; conditions: read-out: Activity
[16] = test system: ACHN; assay: Growth inhibition of human ACHN cells assessed as growth percentage at 10 uM incubated for 48 hrs by sulforhodamine B assay relative to control; assay type: functional; conditions: read-out: Activity
[17] = test system: HCT-116; assay: Growth inhibition of human HCT-116 cells assessed as growth percentage at 100 uM incubated for 48 hrs by sulforhodamine B assay relative to control; assay type: functional; conditions: read-out: Activity
[18] = test system: DU-145; assay: Growth inhibition of human DU-145 cells assessed as growth percentage at 1 uM incubated for 48 hrs by sulforhodamine B assay relative to control; assay type: functional; conditions: read-out: Activity
[19] = test system: LOX IMVI; assay: Growth inhibition of human LOX IMVI cells assessed as growth percentage at 10 uM incubated for 48 hrs by sulforhodamine B assay relative to control; assay type: functional; conditions: read-out: Activity
[20] = test system: HOP-62; assay: Growth inhibition of human HOP-62 cells assessed as growth percentage at 0.1 uM incubated for 48 hrs by sulforhodamine B assay relative to control; assay type: functional; conditions: read-out: Activity
[21] = test system: LOX IMVI; assay: Growth inhibition of human LOX IMVI cells assessed as growth percentage at 1 uM incubated for 48 hrs by sulforhodamine B assay relative to control; assay type: functional; conditions: read-out: Activity
[22] = test system: RXF 393; assay: Growth inhibition of human RXF 393 cells assessed as growth percentage at 100 uM incubated for 48 hrs by sulforhodamine B assay relative to control; assay type: functional; conditions: read-out: Activity
[23] = test system: UACC-257; assay: Growth inhibition of human UACC-257 cells assessed as growth percentage at 100 uM incubated for 48 hrs by sulforhodamine B assay relative to control; assay type: functional; conditions: read-out: Activity
[24] = test system: SNB-75; assay: Growth inhibition of human SNB-75 cells assessed as growth percentage at 0.1 uM incubated for 48 hrs by sulforhodamine B assay relative to control; assay type: functional; conditions: read-out: Activity
[25] = test system: OVCAR-3; assay: Growth inhibition of human OVCAR-3 cells assessed as growth percentage at 100 uM incubated for 48 hrs by sulforhodamine B assay relative to control; assay type: functional; conditions: read-out: Activity
[26] = test system: A549; assay: Growth inhibition of human A549/ATCC cells assessed as growth percentage at 100 uM incubated for 48 hrs by sulforhodamine B assay relative to control; assay type: functional; conditions: read-out: Activity
[27] = test system: T47D; assay: Growth inhibition of human T47D cells incubated for 48 hrs by sulforhodamine B assay; assay type: functional; conditions: for GI50: 48 h
[28] = test system: OVCAR-4; assay: Growth inhibition of human OVCAR-4 cells assessed as growth percentage at 10 uM incubated for 48 hrs by sulforhodamine B assay relative to control; assay type: functional; conditions: read-out: Activity
[29] = test system: HT-29; assay: Growth inhibition of human HT-29 cells assessed as growth percentage at 10 uM incubated for 48 hrs by sulforhodamine B assay relative to control; assay type: functional; conditions: read-out: Activity
[30] = test system: HOP-92; assay: Growth inhibition of human HOP-92 cells assessed as growth percentage at 100 uM incubated for 48 hrs by sulforhodamine B assay relative to control; assay type: functional; conditions: read-out: Activity
[31] = test system: NCI-H460; assay: Growth inhibition of human NCI-H460 cells assessed as growth percentage at 0.1 uM incubated for 48 hrs by sulforhodamine B assay relative to control; assay type: functional; conditions: read-out: Activity
[32] = test system: M14; assay: Growth inhibition of human M14 cells assessed as growth percentage at 1 uM incubated for 48 hrs by sulforhodamine B assay relative to control; assay type: functional; conditions: read-out: Activity
[33] = test system: HCT-15; assay: Growth inhibition of human HCT-15 cells assessed as growth percentage at 100 uM incubated for 48 hrs by sulforhodamine B assay relative to control; assay type: functional; conditions: read-out: Activity
[34] = test system: PC-3; assay: Growth inhibition of human PC-3 cells assessed as growth percentage at 0.01 uM incubated for 48 hrs by sulforhodamine B assay relative to control; assay type: functional; conditions: read-out: Activity
[35] = test system: U-251; assay: Growth inhibition of human U-251 cells assessed as growth percentage at 10 uM incubated for 48 hrs by sulforhodamine B assay relative to control; assay type: functional; conditions: read-out: Activity
[36] = test system: SNB-75; assay: Growth inhibition of human SNB-75 cells assessed as growth percentage at 1 uM incubated for 48 hrs by sulforhodamine B assay relative to control; assay type: functional; conditions: read-out: Activity
[37] = test system: NCI-H460; assay: Growth inhibition of human NCI-H460 cells assessed as growth percentage at 10 uM incubated for 48 hrs by sulforhodamine B assay relative to control; assay type: functional; conditions: read-out: Activity
[38] = molecular target: High affinity nerve growth factor receptor (Homo sapiens, UniProt P04629); assay: Inhibition of human Trk-A using myelin basic protein as substrate incubated for 40 mins in presence of [gamma33P]ATP by scintillation counting method
Chain of High affinity nerve growth factor receptor (P04629 whole entry): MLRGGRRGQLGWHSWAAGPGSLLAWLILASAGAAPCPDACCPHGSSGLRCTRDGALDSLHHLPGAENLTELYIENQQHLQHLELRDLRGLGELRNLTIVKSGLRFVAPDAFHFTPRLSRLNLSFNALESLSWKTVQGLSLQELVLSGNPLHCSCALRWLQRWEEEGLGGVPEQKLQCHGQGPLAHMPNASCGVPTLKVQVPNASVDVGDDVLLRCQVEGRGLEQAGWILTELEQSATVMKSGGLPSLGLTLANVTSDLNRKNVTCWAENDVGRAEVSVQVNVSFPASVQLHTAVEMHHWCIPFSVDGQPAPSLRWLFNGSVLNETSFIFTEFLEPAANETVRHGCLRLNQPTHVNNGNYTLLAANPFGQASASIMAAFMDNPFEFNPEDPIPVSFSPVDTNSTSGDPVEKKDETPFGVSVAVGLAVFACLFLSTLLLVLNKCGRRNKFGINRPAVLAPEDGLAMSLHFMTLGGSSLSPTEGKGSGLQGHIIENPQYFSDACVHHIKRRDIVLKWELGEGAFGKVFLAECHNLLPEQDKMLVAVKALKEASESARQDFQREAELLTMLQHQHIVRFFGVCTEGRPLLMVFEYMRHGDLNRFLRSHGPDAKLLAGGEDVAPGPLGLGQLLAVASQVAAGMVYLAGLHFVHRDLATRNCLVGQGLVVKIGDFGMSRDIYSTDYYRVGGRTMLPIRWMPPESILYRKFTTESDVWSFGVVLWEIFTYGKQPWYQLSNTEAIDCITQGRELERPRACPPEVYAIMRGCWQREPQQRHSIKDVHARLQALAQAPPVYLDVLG

[39] = test system: CCRF-CEM; assay: Growth inhibition of human CCRF-CEM cells assessed as growth percentage at 10 uM incubated for 48 hrs by sulforhodamine B assay relative to control; assay type: functional; conditions: read-out: Activity

Compound `Nc1nc2[nH]c(CN3CCN(c4cc(Cl)cc(Cl)c4)CC3)c(CN3CCN(c4cc(Cl)cc(Cl)c4)CC3)c2c(=O)[nH]1` has a growth at 1 µM [1] of 93%, a growth at 100 µM [2] of -7% and a growth at 100 µM [3] of -50%. For the same compound, the growth at 1 µM [4] was 65%, the growth at 10 µM [5] was 23.6% and the growth at 100 µM [6] was -47%. For the same compound, the growth at 0.1 µM [7] was 73%, the growth at 1 µM [8] was 86% and the CC50 ([9]; 48 h) was 2.89 µM. The GI50 ([9]; Homo sapiens) was 1.63 µM, the TGI ([9]; Homo sapiens) was 3.07 µM and the CC50 ([9]; Homo sapiens, SK-MEL-5, 48 h) was 5.76 µM. The growth at 100 µM [10] was -60%, the GI50 ([11]; Homo sapiens, LOX IMVI) was 1.94 µM and the TGI ([11]; Homo sapiens, LOX IMVI) was 3.57 µM. The inhibition at 10 µM [12] was 15.8%, the growth at 1 µM [13] was 84% and the GI50 [14] was 1.58 µM. The TGI [14] was 3.15 µM, the CC50 [14] was 6.25 µM and the growth at 1 µM [15] was 85%. For the same compound, the growth at 10 µM [16] was 96.8%, the growth at 100 µM [17] was -59% and the growth at 1 µM [18] was 105%. It also gave a growth at 10 µM [19] of 26.3%, a growth at 0.1 µM [20] of 99% and a growth at 1 µM [21] of 104%. For the same compound, the growth at 100 µM [22] was -28%, the growth at 100 µM [23] was -57% and the growth at 0.1 µM [24] was 89%. It also gave a growth at 100 µM [25] of -84%, a growth at 100 µM [26] of -45% and a TGI ([27]; Homo sapiens, T47D) of 4.02 µM. It also gave a GI50 ([27]; Homo sapiens, T47D) of 1.78 µM, a growth at 10 µM [28] of 65.8% and a growth at 10 µM [29] of 33.4%. The growth at 100 µM [30] was -72%, the growth at 0.1 µM [31] was 104% and the growth at 1 µM [32] was 94%. It also gave a growth at 100 µM [33] of -49%, a growth at 0.01 µM [34] of 97% and a growth at 10 µM [35] of 36.6%. For the same compound, the growth at 1 µM [36] was 76%, the growth at 10 µM [37] was 79.4% and the IC50 [38] was 12.4 µM. For the same compound, the growth at 10 µM [39] was 45.1%.

With `CCCCCCCC(=O)Nc1nc2[nH]c(CN3CCN(Cc4cccc(F)c4)CC3)c(CN3CCN(Cc4cccc(F)c4)CC3)c2c(=O)[nH]1` the growth at 1 µM [1] was -33%, the growth at 100 µM [2] was -7% and the growth at 100 µM [3] was -95%. For the same compound, the growth at 1 µM [4] was 59%, the growth at 10 µM [5] was -40% and the growth at 100 µM [6] was -53%. For the same compound, the growth at 0.1 µM [7] was 86%, the growth at 1 µM [8] was 68% and the GI50 ([9]; Homo sapiens) was 1.57 µM. It also gave a TGI ([9]; Homo sapiens) of 3.03 µM, a CC50 ([9]; Homo sapiens, SK-MEL-5, 48 h) of 5.87 µM and a growth at 100 µM [10] of -79%. The GI50 [11] was 0.2 µM, the LC50 (concentration killing 50% of cells) [11] was 8.87 µM and 0.89 µM and the TGI [11] was 0.42 µM. It also gave a GI50 ([11]; Homo sapiens, LOX IMVI) of 0.195 µM, a TGI ([11]; Homo sapiens, LOX IMVI) of 0.416 µM and an inhibition at 10 µM [12] of 14.1%. It also gave a growth at 1 µM [13] of 61%, a GI50 [14] of 1.21 µM and a TGI [14] of 2.54 µM. It also gave a CC50 [14] of 5.31 µM, a growth at 1 µM [15] of 74% and a growth at 10 µM [16] of -96.6%. For the same compound, the growth at 100 µM [17] was -69%, the growth at 1 µM [18] was 56% and the growth at 10 µM [19] was -88.5%. It also gave a growth at 0.1 µM [20] of 95%, a growth at 1 µM [21] of -58% and a growth at 100 µM [22] of -95%. For the same compound, the growth at 100 µM [23] was -91%, the growth at 0.1 µM [24] was 82% and the growth at 100 µM [25] was -73%. The growth at 100 µM [26] was -88%, the GI50 [27] was 0.16 µM and 1.6 µM and the TGI ([27]; Homo sapiens, T47D) was 3.47 µM. The CC50 ([27]; Homo sapiens, T47D, read-out: LC50 (the source's name)) was 7.53 µM, the growth at 10 µM [28] was -94% and the growth at 10 µM [29] was -69.7%. The growth at 100 µM [30] was -95%, the growth at 0.1 µM [31] was 105% and the growth at 1 µM [32] was -47%. The growth at 100 µM [33] was -85%, the growth at 0.01 µM [34] was 98% and the growth at 10 µM [35] was -92.7%. The growth at 1 µM [36] was 71%, the growth at 10 µM [37] was -82.3% and the IC50 [38] was 2.25 µM. For the same compound, the growth at 10 µM [39] was -25.8%.

— ChEMBL document CHEMBL4673219, “Novel 5,6-disubstituted pyrrolo[2,3-d]pyrimidine derivatives as broad spectrum antiproliferative agents: Synthesis, cell based assays, kinase profile and molecular docking study” (Bioorg Med Chem, 2018)
